From PMC7365090, “In crystallo-screening for discovery of human norovirus 3C-like protease inhibitors” (Journal of Structural Biology: X, 2020)
Like-named read-outs stand apart in the source and are kept apart here.

Target: T1, SV3CP (Southampton norovirus 3CL^pro) (Southampton virus (serotype 3), UniProt Q04544)
T1 construct: gene ORF1; mature 3C-like protease (NS6) cut from the ORF1 non-structural polyprotein; purified as in Hussey et al. 2011; mass 19,290 Da (intact); dimer in asymmetric unit, putative crystallographic tetramer
Experiment: chromogenic protease assay, […] nm
Type: biochemical

T1 sequence (Q04544 1100-1280): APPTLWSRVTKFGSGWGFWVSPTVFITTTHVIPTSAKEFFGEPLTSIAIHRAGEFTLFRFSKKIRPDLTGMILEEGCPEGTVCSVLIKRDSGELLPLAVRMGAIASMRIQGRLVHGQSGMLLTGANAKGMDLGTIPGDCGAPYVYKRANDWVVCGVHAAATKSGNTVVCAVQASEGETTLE

| Structure (SMILES) | Ki (read-out: Ki) | Ki |
| --- | --- | --- |
| Cc1ccc(CNc2cccc(C(=O)O)c2)s1 [J01] | 370 µM |  |
| O=C(O)c1csc(-c2ccc(C(F)(F)F)cc2)n1 [J02] |  | 340 µM |
